Laboratory results as given in ChEMBL document CHEMBL1155692, “An unusual nitrogenous terphenyl derivative from fruiting bodies of the basidiomycete Sarcodon leucopus” (2000).
In brackets after ≈: the same amount, converted by molar mass.

What was measured:
P388 = assay: Cytotoxicity against mouse P388 cells; type: functional; conditions: read-out: ED50 (the source's name)
KB = assay: Cytotoxicity against human KB cells; type: functional; conditions: read-out: ED50 (the source's name)

Structure (SMILES): CC[C@@H](C)[C@]12Oc3cc(-c4c(O)c(O)c(-c5ccc(OC(C)=O)cc5)c(OC(C)=O)c4OC(C)=O)ccc3O[N+]1([O-])C(O)=C([C@@H](C)CC)N(O)C2=O (some centres not stated) [SARCODONIN]
- EC50 (P388): 27 µg/mL (≈ 37.4 µM)
- EC50 (KB): 10 µg/mL (≈ 13.8 µM)
